“Also recorded” adds a separate entry of the source.

Type in all cases: cell-based
For one experiment, the system named is COX-2 gene expression. In words: COX-2 expression in HCT-116 cells after induction with TNF-alpha, EGF or IL-1. The settings on record: 1 hour pre-incubation, then TNF-alpha, EGF or IL-1 for 1 hour. On the procedure: Endogenous levels of COX-2 were determined following addition of the three botanical extracts. After incubating the HCT-116 cells with the different fractions for 1 hour, the cells were treated with TNF-alpha, EGF or IL-1 […] (all known inducers of COX-2 expression) for an additional 1 hour to induce high levels of COX-2 expression.

The subject of experiment [1] is I-kappa B-luciferase (IkB-Luc) fusion protein. In words: IkB-Luc degradation luciferase (luminescence imaging) assay in stably transfected HCT-116 cells. The settings on record: human urine sample two hours after ingestion of 8 g curcumin. How it is done:
This construct has been transfected into HeLa and HCT-116 cells.
The substrate for luciferase, D-luciferin was also added to the cells at the same time, and the cells were incubated in extremely light-tight, low-background imaging chamber, at 37° C. Photon luminescence emitted from the cells is detected with a back-thinned CCD camera, designed for high-efficiency photon detection, particularly in the important red region of the spectrum.
The imaging assay cells were plated in a 24 well dish and allowed to grow for 24 hours; they were then treated with 10 ng/ml TNF-alpha, the substrate for luciferase, D-luciferin was also added at the same time, the cells were then incubated in a light-tight, low background imaging chamber, at 37° C.
Photon luminescence emitted from the cells was detected with a back-thinned CCD camera, designed for high-efficiency photon detection. The CCD is cooled and the electronic readout is optimized so that the data gathered extremely low noise.
HCT-116 cells stably expressing I-kB-Luc were incubated for 2 hours with increasing concentrations (0-1000 μl) control or post-curcumin ingested urine. Subsequently, some of the cells were treated with TNF-alpha. The level of I-kB degradation was determined by the luciferase assay. […] Similar experiments were conducted with black raspberry extracts.

Experiment [2] concerns native I-kappa B and I-kappa B-luciferase (IkB-Luc). In words: Western blot of total cell lysates from TNF-alpha-treated HCT-116 cells. To be noted: incubation with TNF-alpha. On the procedure: In this experiment the degradation of I-kappa B was investigated. The I-kappa B was stably expressed as a fusion protein with the firefly luciferase in HCT-116 colon cancer cells. Presence of I-kappa B can then be monitored by luminescence activity. It was determined that the fusion protein is subject to similar levels of degradation in response to a stimulus such as tumor necrosis factor-alpha (TNF-alpha), a known inducer of phosphorylation and degradation of I-kappa B, as would be the case with the native of I-kappa B. Western blot analyses of total cell lysates from TNF-alpha-treated cells were subjected to western blot analyses. Both, native I-kappa B and I-kappa B-luciferase (IkB-Luc) levels were decreased within 20 minutes of incubation with TNF-alpha.
(A western blot detects proteins with antibodies after separation by electrophoresis.)

Consider `COc1cc(/C=C/C(=O)CC(=O)/C=C/c2ccc(O)c(OC)c2)ccc1O` [curcumin], for which, in the experiment on COX-2 gene expression, the COX-2 gene expression entry is “inhibitor of COX-2 gene expression”. Moreover, the “protection of IkB-Luc from TNF-alpha-mediated degradation” value is “significant increase in the protection of the IkB-Luc from TNF-alpha-mediated degradation; also recorded: reduced the TNF degradation of I kappa B-Luc” in experiment [1] and “significantly inhibited the IkB-Luc degradation” in experiment [1] (listed as cucurmin).
With TNF-alpha, the “time to decrease of native I-kappa B and IkB-Luc levels” value in experiment [2] was at most 20 min.

Values taken from patent US20100009395A1, “LUMINESCENCE ASSAY UTILIZING A GENETICALLY MODIFIED CELL LINE” (priority 2006, published 2010).
